Drawing on PubChem BioAssay (NCI), this text covers TGI for 14 molecules.

Molecules are shown by their SMILES.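 96-well plates; 48 h exposure; 5 concentrations. Endpoints by linear interpolation between flanking doses. Not reached: highest tested concentration assigned. TGI denotes the concentration required for complete inhibition of growth.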

Some test systems named below: OVCAR-4 ovarian; NCI-H460 lung; OVCAR-8 ovarian; HCC-2998 colon; U251 CNS; RXF 393 renal; OVCAR-5 ovarian; HT29 colon; A498 renal.
Common to all, as to experiment: DTP human tumour cell line panel, 48 h

With `N=C(c1ccccc1)N(O)C1CCCCC1`, the TGI in the experiment with OVCAR-4 ovarian, with NCI-H460 lung, in the experiment on OVCAR-8 ovarian, with HCC-2998 colon, with U251 CNS and with RXF 393 renal was > 100 µM throughout. For the same molecule, the TGI with OVCAR-5 ovarian and in the experiment on HT29 colon was > 100 µM each time.
Consider `CC(=O)OC1CCn2nnc(COC(=O)NC(C)C)c21` (centres undefined), for which the TGI with OVCAR-4 ovarian, in the experiment on NCI-H460 lung, in the experiment with OVCAR-8 ovarian, in the experiment on HCC-2998 colon, in the experiment on U251 CNS and in the experiment with RXF 393 renal was > 100 µM in each case. Also, the TGI in the experiment with OVCAR-5 ovarian and with HT29 colon was > 100 µM each time.
`N=C(N)SCCc1cn2ccccc2n1`: the TGI in the experiment on OVCAR-4 ovarian, with NCI-H460 lung, in the experiment on OVCAR-8 ovarian, with HCC-2998 colon, with U251 CNS and with OVCAR-5 ovarian was > 100 µM throughout. The TGI with HT29 colon was > 100 µM.
Regarding `CN(C)CCn1c2ccccc2c2nc3cc4ccccc4cc3nc21`, the TGI is 23.7 µM in the experiment with OVCAR-4 ovarian; 8.11 µM with A498 renal; 2.48 µM in the experiment on NCI-H460 lung; 23 µM with OVCAR-8 ovarian; 17.7 µM with HCC-2998 colon; 19.5 µM in the experiment on U251 CNS. In addition, the TGI in the experiment with RXF 393 renal is 24.4 µM; in the experiment on HT29 colon it was 15 µM.
Regarding `O=C(CCC(=O)Nc1ccc(Cl)cc1)CC(=O)c1ccc(F)cc1`, the TGI in the experiment on OVCAR-4 ovarian, in the experiment with NCI-H460 lung, with OVCAR-8 ovarian, in the experiment on HCC-2998 colon, with OVCAR-5 ovarian and in the experiment on HT29 colon was > 100 µM throughout.
As to `O=c1[nH]c(Br)nc2c(Br)c[nH]c12`, the TGI in the experiment on OVCAR-4 ovarian, in the experiment with A498 renal, in the experiment on NCI-H460 lung, with OVCAR-8 ovarian, in the experiment with U251 CNS and in the experiment on RXF 393 renal was > 100 µM each time. Besides, the TGI with OVCAR-5 ovarian and with HT29 colon was > 100 µM in each case.
With `CC(C)C(=O)N[C@@H](C)C(=O)N(Cc1ccc2ccccc2c1)N=O`, the TGI with OVCAR-4 ovarian, with A498 renal, in the experiment on NCI-H460 lung, in the experiment with OVCAR-8 ovarian, with HCC-2998 colon and in the experiment with U251 CNS was > 100 µM throughout. The TGI in the experiment on OVCAR-5 ovarian and with HT29 colon was > 100 µM each time.
Consider `Nc1ccc(Nc2nc(F)nc(-c3c4ccccc4c4n3CCS4)n2)cc1`, for which the TGI with OVCAR-4 ovarian came to 29.4 µM; with OVCAR-8 ovarian, 37.8 µM; in the experiment with HCC-2998 colon, 44.8 µM; in the experiment with U251 CNS, 31 µM; in the experiment with RXF 393 renal it was 43.3 µM; in the experiment on OVCAR-5 ovarian it was 32.8 µM.
For the molecule `O=C(O)/C(=C/c1ccccc1[N+](=O)[O-])c1ccccc1`, the TGI in the experiment on OVCAR-4 ovarian, in the experiment on A498 renal, with NCI-H460 lung, in the experiment with OVCAR-8 ovarian, with HCC-2998 colon and in the experiment with U251 CNS was > 100 µM each time. For the same molecule, the TGI in the experiment on OVCAR-5 ovarian and in the experiment on HT29 colon was > 100 µM each time.
In the case of `O=c1cc(Cl)nc[nH]1`, the TGI in the experiment on OVCAR-4 ovarian, in the experiment with A498 renal, in the experiment on NCI-H460 lung, in the experiment with OVCAR-8 ovarian, in the experiment with HCC-2998 colon and in the experiment with U251 CNS was > 100 µM in each case. In addition, the TGI in the experiment with OVCAR-5 ovarian and in the experiment with HT29 colon was > 100 µM throughout.
`O=C(Nc1c(-c2nc3ccccc3[nH]2)sc(=S)n1-c1ccccc1)c1ccccc1`: the TGI in the experiment with A498 renal, in the experiment with OVCAR-8 ovarian, in the experiment with HCC-2998 colon, with U251 CNS, in the experiment with RXF 393 renal and with OVCAR-5 ovarian was > 100 µM throughout. Also, the TGI in the experiment on HT29 colon was > 100 µM.
`Cc1cc(NS(=O)(=O)c2ccc(NC(=O)c3cccc4c(N)c5ccccc5nc34)cc2)no1`: the TGI in the experiment on OVCAR-4 ovarian was 70.5 µM; in the experiment with A498 renal, 52 µM; in the experiment with NCI-H460 lung, > 100 µM; with OVCAR-8 ovarian, 59.4 µM; with U251 CNS, 78.2 µM; with RXF 393 renal, 31.9 µM. Besides, the TGI with OVCAR-5 ovarian is > 100 µM; in the experiment with HT29 colon, 80.8 µM.
Turning to `COc1ccc2c3c1C(=O)CCC3CO2` (centres undefined), the TGI in the experiment on OVCAR-4 ovarian, with A498 renal, in the experiment on NCI-H460 lung, with OVCAR-8 ovarian, in the experiment on HCC-2998 colon and in the experiment on U251 CNS was > 100 µM throughout. The TGI with OVCAR-5 ovarian and in the experiment with HT29 colon was > 100 µM throughout.
Turning to `CCCNCc1nc2ccc(Br)cc2c(=O)n1CCC`, the TGI with OVCAR-4 ovarian worked out at 27.7 µM; with A498 renal it was 32 µM; with OVCAR-8 ovarian, 26.7 µM; with U251 CNS, 26.3 µM; with RXF 393 renal, 29.1 µM; in the experiment with HT29 colon, 29.9 µM.

What is called TGI is the concentration giving total growth inhibition. A higher TGI goes with less potent growth arrest.
